Test results: patent US5885990A, “Substituted amidinonaphthyl ester derivative” (Torii Pharmaceutical Co., Ltd., priority 1995, dated 1999)
Structures can show the parent of a compound that is named as a salt.

Columns and labels:
[1] = tested on: pulmonary thrombosis of mouse models (thrombin-induced); assay: Preventive effect on death due to pulmonary thrombosis of mouse models; format: in vivo; set-up: key: ratio of survival rate to positive control group's survival rate; details: ddy male mice, 10 mg/kg oral; thrombin 10 units/mouse via caudal vein after 6 hours; survival rate 16 hours after thrombin, as ratio to survival rate of positive control Sepimostat mesilate
Description: (1) Preventive effect on death due to pulmonary thrombosis of mouse models:
For experiment, ddy male mice after a fast of 6 hours were used and 10 mg/kg of the present compound was orally administered. […] After lapse of 6 hours, 10 units/mouse of thrombin was administered to the mice through caudal vein to cause thrombosis for the mice. After 16 hours from thrombin-induction, mortality was checked and the preventive effect on death (survival rate) was indicated by the ratio to the survival rate of the positive control group.

[2] = tested on: blood plasmin like activity; assay: Determination of blood plasmin like activity using synthetic substrate (plasma after oral dosing); format: in vivo, rat; details: SD male rats, 100 mg/kg oral, substrate Boc-Val-Leu-Lys-MCA, pH 8.5, 37° C., 30 minutes, Water control 0.07
Description: (2) Test of determination of blood plasmin like activity using synthetic substrate:
For the test, SD male rats (8 weeks old) after fasted overnight were used, and 100 mg/kg of the present compound was orally administered to the rats, and blood was drawn, with time, from the descending aorta as citrate-containing blood and subjected to centrifugation to obtain plasma. Water was orally administered to the rats of control group and plasma was similarly obtained.
To the plasma obtained were added 0.1M borate buffer solution (pH 8.5) and Boc-Val-Leu-Lys-MCA and incubation was conducted at 37° C. for 30 minutes.

[3] = tested on: plasminogen activator inhibitor (PAI-1); assay: Measurement of plasminogen activator inhibitor (PAI-1) antigen quantity in plasma; format: in vivo, rat; details: SD male rats, 100 mg/kg oral; plasma of Test (2); ELISA; Water control 54.2
Description: (3) Test of measurement of plasminogen activator inhibitor (PAI-1) antigen quantity:
Measurement of PAI-1 antigen quantity was conducted using the plasma obtained in the above Test (2).
Previously, 100 μl of a diluted 10 mM carbonate buffered solution of monoclonal antibody to PAI-1 was put in each well of a 96-well micro-titer plate and left to stand for 16 hours at 4° C., followed by washing, four times, with 10 mM phosphate buffer solution containing 0.1% Tween 20 and adding a standard solution and the plasma sample. After leaving for 2 hours at room temperature and washing again four times, 100 μl of an enzyme-labelled PAI-1 polyclonal antibody was added to carry out reaction at room temperature for 2 hours. After excess antibody was washed, 100 μl of citric acid buffer solution containing 10 mg of o-phenylenediamine and 0.1% hydrogen peroxide was added, followed by leaving it for 30 minutes at 30° C. to cause color formation. After the reaction was terminated by the addition of 50 μl of 2N sulfuric acid, absorbance at 405 nm was measured by a micro-plate reader to determine the PAI-1 antigen quantity in the plasma sample.

| SMILES | Preventive effect on death [1] | Plasmin like activity [2] [nmol/min/mL] | PAI-1 antigen quantity [3] [ng/mL] |
| --- | --- | --- | --- |
| N=C(N)c1ccc2c(CC(N)=O)c(OC(=O)c3ccc(NC4=NCCN4)cc3)ccc2c1 [Example 1, 6-amidino-1-carbamoylmethyl-2-naphthyl 4-[(4,5-dihydro-1H-imidazol-2-yl)amino]-benzoate.dihydrochloride] | 1.16 | 0.37 | 28.5 |
| CC(=O)NCCN=CNCNc1ccc(C(=O)Oc2ccc3cc(C(=N)N)ccc3c2CC(N)=O)cc1.Cl.Cl [Example 3, 6-amidino-1-carbamoylmethyl-2-naphthyl 4-[(2-acetylaminoethyl)iminomethylaminomethylamino]benzoate.dihydrochloride] | 1.09 | – | – |
| N=C(N)c1ccc2c(CCC(N)=O)c(OC(=O)c3ccc(NC4=NCCN4)cc3)ccc2c1 [Example 5, 6-amidino-1-(2-carbamoylethyl)-2-naphthyl 4-[(4,5-dihydro-1H-imidazol-2-yl)amino]-benzoate.dihydrochloride] | 1.00 | – | – |
| N=C(NCCO)Nc1ccc(C(=O)Oc2ccc3cc(C(=N)N)ccc3c2CC(N)=O)cc1 [Example 7, 6-amidino-1-carbamoylmethyl-2-naphthyl 4-[(2-hydroxyethyl)aminoiminomethylamino]-benzoate.dihydrochloride] | 1.05 | 0.62 | – |
| N=C(N)c1ccc2c(CC(N)=O)c(OC(=O)c3ccc([N+](=O)[O-])cc3)ccc2c1 [Example 11, 6-amidino-1-carbamoylmethyl-2-naphthyl 4-nitrobenzoate.hydrochloride] | 1.12 | – | – |
| N=C(N)c1ccc2c(CC(N)=O)c(OC(=O)c3ccc(N)cc3)ccc2c1 [Example 12, 6-amidino-1-carbamoylmethyl-2-naphthyl 4-aminobenzoate.dihydrochloride] | 1.05 | – | – |
| CN(C)c1ccc(C(=O)Oc2ccc3cc(C(=N)N)ccc3c2CC(N)=O)cc1 [Example 15, 6-amidino-1-carbamoylmethyl-2-naphthyl 4-dimethylaminobenzoate.dihydrochloride] | 1.05 | – | – |
| CN(C)CCNC(=N)Nc1ccc(C(=O)Oc2ccc3cc(C(=N)N)ccc3c2CC(N)=O)cc1 [Example 17, 6-amidino-1-carbamoylmethyl-2-naphthyl 4-[(2-dimethylaminoethyl)aminoiminomethylamino]benzoate.trihydrochloride] | – | 0.62 | – |
| N=C(NCCN1CCCC1)Nc1ccc(C(=O)Oc2ccc3cc(C(=N)N)ccc3c2CC(N)=O)cc1 [Example 24] | – | 0.55 | – |
| CNC(=N)Nc1ccc(C(=O)Oc2ccc3cc(C(=N)N)ccc3c2CC(N)=O)cc1 [Example 26, 6-amidino-1-carbamoylmethyl-2-naphthyl 4-methylaminoiminomethylaminobenzoate.dihydrochloride] | – | 0.60 | – |
| CN=C(NC)Nc1ccc(C(=O)Oc2ccc3cc(C(=N)N)ccc3c2CC(N)=O)cc1 [Example 27, 6-amidino-1-carbamoylmethyl-2-naphthyl 4-methylaminomethyliminomethylaminobenzoate.dihydrochloride] | – | 0.52 | – |
| N=C(N)c1ccc2c(CC(N)=O)c(OC(=O)c3ccc(NC4=NCCS4)cc3)ccc2c1 [Example 31, 6-amidino-1-carbamoylmethyl-2-naphthyl 4-[(4,5-dihydrothiazol-2-yl)amino]-benzoate.dihydrochloride] | 1.00 | – | – |
| COC(=O)Cc1c(OC(=O)c2ccc(NC3=NCCN3)cc2)ccc2cc(C(=N)N)ccc12 [Example 39, 6-amidino-1-methoxycarbonylmethyl-2-naphthyl 4-[(4,5-dihydro-1H-imidazol-2-yl)amino]benzoate.dimethanesulfonate] | 1.19 | 0.58 | – |
| Cl.Cl.N=C(N)Nc1ccc(C(=O)Oc2ccc3cc(C(=N)N)ccc3c2C=CC(N)=O)cc1 [Example 46, 6-amidino-1-(2-carbamoylvinyl)-2-naphthyl 4-aminoiminomethylaminobenzoate.dihydrochloride] | – | 0.63 | – |
| CN(C)C(=O)COC(=O)c1c(OC(=O)c2ccc(NC3=NCCN3)cc2)ccc2cc(C(=N)N)ccc12 [Example 48, 6-amidino-1-dimethylcarbamoylmethoxycarbonyl-2-naphthyl 4-[(4,5-dihydro-1H-imidazol-2-yl)amino]benzoate.dihydrochloride] | 0.96 | – | – |
